Reference: US10829499B2, “Tetracyclic heterocycle compounds useful as HIV integrase inhibitors” (MERCK SHARP & DOHME CORP., priority 2016, dated 2020)
Where two headings read alike, the source gives them in different places.

System: HIV-1 (NL4-3 strain)
Test: Assay for Inhibition of HIV Replication (kinetic assay, MT4-gag-GFP reporter cell line; VIKING)
Assay type: cell-based
Method: This assay is a kinetic assay that employs a reporter cell line (MT4-gag-GFP) to quantify the number of new cells infected in each round of replication.
MT4-GFP cells (250,000 cells/ml) were bulk-infected with HIV-1 (NL4-3 strain) at low multiplicity of infection (MOI) in RPMI cell culture medium+10% FBS for 24 hours. Cells were then washed once in RPMI cell culture medium+10% FBS and resuspended in RPMI cell culture medium+0% or 10% or 100% normal human serum (NHS). Test compounds were serial-diluted in DMSO on an ECHO® liquid handler. The infected MT4-GFP cells were added to a 384-well poly-D-lysine coated black plate with clear bottom in which the diluted test compounds were placed. The cells were seeded at 8,000 cells per well and the final DMSO concentration was 0.4%. The infected cells (Green GFP cells) were quantified at both 24 and 48 hours post incubation using Acumen eX3. Viral reproductive ratio (R0) was determined using the number of infected cells at 48 hours divided by the number of infected cells at 24 hours. Percent viral growth inhibition was calculated by [1-(R-Rtripledrug),/(RDMSO-Rtripledrug)]*100. Compound potency IP or IC50 was determined by a 4-parameter dose response curve analysis. In vitro potency in the cell-based assay in the absence of normal human serum (NHS) and the presence of 100% NHS.

[1] = Human immunodeficiency virus 1, NL43, MT4-GFP cells infected with HIV-1 NL4-3, 0% normal human serum (NHS), read-out: VIKING IP50 (nM) with 0% NHS
[2] = Human immunodeficiency virus 1, NL43, MT4-GFP cells infected with HIV-1 NL4-3, 100% normal human serum (NHS), read-out: VIKING IP50 (nM) with 100% NHS
[3] = MT4-GFP cells infected with HIV-1 NL4-3, 100% normal human serum (NHS), read-out: VIKING IP50 (nM) with 100% NHS
[4] = MT4-GFP cells infected with HIV-1 NL4-3, 0% normal human serum (NHS), read-out: VIKING IP50 (nM) with 0% NHS

Compound	IC50 [1] [nM]	IC50 [2] [nM]	IC50 [3] [nM]	IC50 [4] [nM]
COc1cc(F)cc(F)c1CNC(=O)c1c2n3c(c(O)c1=O)C(=O)N1CCCOC1C3CC2 (racemic) [Compound 59]	3.08	8400		
O=C(NCc1cccc(Cl)c1F)c1c2n3c(c(O)c1=O)C(=O)N1CCOC1C3CC2 (single isomer, unassigned) [Compound 3]	0.478		372	
O=C(NCc1cccc(Cl)c1F)c1c2n3c(c(O)c1=O)C(=O)N1CCOC1C3CC2 (single isomer, unassigned) [Compound 4]			93.6	0.439
O=C(NCc1cccc(Cl)c1F)c1c2n3c(c(O)c1=O)C(=O)N1CCOC1C3CC2 (single isomer, unassigned) [Compound 5]			2250	0.409
O=C(NCc1ccc(F)cc1F)c1c2n3c(c(O)c1=O)C(=O)N1CCOC1C3CC2 (single isomer, unassigned) [Compound 6]			7910	0.825
O=C(NCc1ccc(F)cc1F)c1c2n3c(c(O)c1=O)C(=O)N1CCOC1C3CC2 (single isomer, unassigned) [Compound 7]			1410	2.15
O=C(NCc1ccc(F)cc1F)c1c2n3c(c(O)c1=O)C(=O)N1CCOC1C3CC2 (single isomer, unassigned) [Compound 8]			245	1
O=C(NCc1ccc(F)cc1F)c1c2n3c(c(O)c1=O)C(=O)N1CCOC1C3CC2 (single isomer, unassigned) [Compound 9]	0.7		1130	
O=C(NCc1ccccc1F)c1c2n3c(c(O)c1=O)C(=O)N1CCOC1C3CC2 (single isomer, unassigned) [Compound 10]	0.813		226	
O=C(NCc1ccccc1F)c1c2n3c(c(O)c1=O)C(=O)N1CCOC1C3CC2 (single isomer, unassigned) [Compound 11]			589	1.09
O=C(NCc1ccccc1F)c1c2n3c(c(O)c1=O)C(=O)N1CCOC1C3CC2 (single isomer, unassigned) [Compound 12]			892	1.39
O=C(NCc1ccccc1F)c1c2n3c(c(O)c1=O)C(=O)N1CCOC1C3CC2 (single isomer, unassigned) [Compound 13]			5520	0.827
O=C(NCc1c(F)cccc1F)c1c2n3c(c(O)c1=O)C(=O)N1CCOC1C3CC2 (single isomer, unassigned) [Compound 14]			194	0.827
O=C(NCc1c(F)cccc1F)c1c2n3c(c(O)c1=O)C(=O)N1CCOC1C3CC2 (single isomer, unassigned) [Compound 15]			373	0.609
O=C(NCc1c(F)cccc1F)c1c2n3c(c(O)c1=O)C(=O)N1CCOC1C3CC2 (single isomer, unassigned) [Compound 16]		8000		6.28
O=C(NCc1c(F)cccc1F)c1c2n3c(c(O)c1=O)C(=O)N1CCOC1C3CC2 (single isomer, unassigned) [Compound 17]			7940	7.09
O=C(NCc1c(F)cc(F)cc1F)c1c2n3c(c(O)c1=O)C(=O)N1CCOC1C3CC2 (single isomer, unassigned) [Compound 18]	0.483	8000		
O=C(NCc1c(F)cc(F)cc1F)c1c2n3c(c(O)c1=O)C(=O)N1CCOC1C3CC2 (single isomer, unassigned) [Compound 19]			1230	0.539
O=C(NCc1c(F)cc(F)cc1F)c1c2n3c(c(O)c1=O)C(=O)N1CCOC1C3CC2 (single isomer, unassigned) [Compound 20]			602	0.727
O=C(NCc1c(F)cc(F)cc1F)c1c2n3c(c(O)c1=O)C(=O)N1CCOC1C3CC2 (single isomer, unassigned) [Compound 21]			158	0.605
O=C(NCc1ccc(F)c(Cl)c1)c1c2n3c(c(O)c1=O)C(=O)N1CCOC1C3CC2 (single isomer, unassigned) [Compound 22]	0.895		503	
O=C(NCc1ccc(F)c(Cl)c1)c1c2n3c(c(O)c1=O)C(=O)N1CCOC1C3CC2 (single isomer, unassigned) [Compound 23]			2190	1.06
O=C(NCc1ccc(F)c(Cl)c1)c1c2n3c(c(O)c1=O)C(=O)N1CCOC1C3CC2 (single isomer, unassigned) [Compound 24]		8000		0.622

Compound	IC50 [1] [nM]	IC50 [2] [nM]	IC50 [3] [nM]	IC50 [4] [nM]
O=C(NCc1ccc(F)c(Cl)c1)c1c2n3c(c(O)c1=O)C(=O)N1CCOC1C3CC2 (single isomer, unassigned) [Compound 25]			2540	0.809
C[C@H]1COC2C3CCc4c(C(=O)NCc5ccc(F)cc5F)c(=O)c(O)c(n43)C(=O)N21 (single isomer, unassigned) [Compound 27]	0.313		956	
C[C@H]1COC2C3CCc4c(C(=O)NCc5ccc(F)cc5F)c(=O)c(O)c(n43)C(=O)N21 (single isomer, unassigned) [Compound 28]			257	0.401
C[C@H]1COC2C3CCc4c(C(=O)NCc5cccc(Cl)c5F)c(=O)c(O)c(n43)C(=O)N21 (single isomer, unassigned) [Compound 29]	0.412		3410	
C[C@H]1COC2C3CCc4c(C(=O)NCc5cccc(Cl)c5F)c(=O)c(O)c(n43)C(=O)N21 (single isomer, unassigned) [Compound 30]			838	0.536
C[C@H]1COC2C3CCc4c(C(=O)NCc5cccc(Cl)c5F)c(=O)c(O)c(n43)C(=O)N21 (single isomer, unassigned) [Compound 31]			197	0.418
C[C@@H]1COC2C3CCc4c(C(=O)NCc5ccc(F)cc5F)c(=O)c(O)c(n43)C(=O)N21 (single isomer, unassigned) [Compound 33]	0.543	1940		
C[C@@H]1COC2C3CCc4c(C(=O)NCc5ccc(F)cc5F)c(=O)c(O)c(n43)C(=O)N21 (single isomer, unassigned) [Compound 34]			1560	0.635
C[C@@H]1COC2C3CCc4c(C(=O)NCc5cccc(Cl)c5F)c(=O)c(O)c(n43)C(=O)N21 (single isomer, unassigned) [Compound 36]	0.826	1060		
C[C@@H]1COC2C3CCc4c(C(=O)NCc5cccc(Cl)c5F)c(=O)c(O)c(n43)C(=O)N21 (single isomer, unassigned) [Compound 37]			1690	0.546
C[C@@H]1CN2C(=O)c3c(O)c(=O)c(C(=O)NCc4cccc(Cl)c4F)c4n3C(CC4)C2O1 (single isomer, unassigned) [Compound 39]		8000		0.575
C[C@@H]1CN2C(=O)c3c(O)c(=O)c(C(=O)NCc4cccc(Cl)c4F)c4n3C(CC4)C2O1 (single isomer, unassigned) [Compound 40]			8000	1.84
C[C@@H]1CN2C(=O)c3c(O)c(=O)c(C(=O)NCc4cccc(Cl)c4F)c4n3C(CC4)C2O1 (single isomer, unassigned) [Compound 41]			2380	0.854
C[C@H]1CN2C(=O)c3c(O)c(=O)c(C(=O)NCc4cccc(Cl)c4F)c4n3C(CC4)C2O1 (single isomer, unassigned) [Compound 43]			18.2	1.06
C[C@H]1CN2C(=O)c3c(O)c(=O)c(C(=O)NCc4cccc(Cl)c4F)c4n3C(CC4)C2O1 (single isomer, unassigned) [Compound 44]			378	0.879
C[C@H]1CN2C(=O)c3c(O)c(=O)c(C(=O)NCc4cccc(Cl)c4F)c4n3C(CC4)C2O1 (single isomer, unassigned) [Compound 45]			486	5.81
O=C(NCc1cccc(Cl)c1F)c1c2n3c(c(O)c1=O)C(=O)N1CCCO[C@@H]1[C@@H]3CC2 (single isomer, unassigned) [Compound 48]	1.31	27.3		
O=C(NCc1cccc(Cl)c1F)c1c2n3c(c(O)c1=O)C(=O)N1CCCOC1C3CC2 (single isomer, unassigned) [Compound 49]	0.96	1190		
O=C(NCc1cccc(Cl)c1F)c1c2n3c(c(O)c1=O)C(=O)N1CCCOC1C3CC2 (single isomer, unassigned) [Compound 50]			1070	0.901
O=C(NCc1ccc(F)cc1)c1c2n3c(c(O)c1=O)C(=O)N1CCCOC1C3CC2 (single isomer, unassigned) [Compound 51]	1.25		32.6	
O=C(NCc1ccc(F)cc1)c1c2n3c(c(O)c1=O)C(=O)N1CCCOC1C3CC2 (single isomer, unassigned) [Compound 52]			3380	1.29
O=C(NCc1ccc(F)cc1)c1c2n3c(c(O)c1=O)C(=O)N1CCCOC1C3CC2 (single isomer, unassigned) [Compound 53]			393	0.963
